Measurements taken from patent US20240368668A1, “SUBSTRATES AND BIOMARKERS OF ADAMTS7” (The Broad Institute, Inc., priority 2021, published 2024).
Square brackets hold non-standard residues; d marks the D form. Ends that are not written are not given here.

Tests used:
mouse ADAMTS7 [1] = experiment: TMT10 TAILS N-terminomics, SMC1 experiment (Ad-mADAMTS7 WT vs EQ vs Luc, technical replicates, trypsin digest); format: cell-based; details: TAILS neo-N-terminal peptide abundance; log fold change, Ad-mADAMTS7 WT over EQ
Summary of the method: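 Full-length mouse ADAMTS7 (WT or E373Q mutant, C-terminal 3xFLAG) or luciferase was transduced via adenovirus, 50 MOI, into HCA-SMC (SMC1, SMC2) or HUVEC. SMC1: pooled media, technical triplicates 400 ug; SMC2: process triplicates 300 ug; HUVEC: process triplicates 200 ug, bFGF2 10 ng/ml.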

mouse ADAMTS7 [2] = experiment: TMT10 TAILS N-terminomics, SMC2 experiment (process replicates, trypsin/AspN digest); format: cell-based; details: SMC2_TAILS HC
From the text: ADAMTS7 Expression, Cell Culture and Preparation of the Secreted Proteins—Full-length mouse Adamts7 1-1857 (Uniprot Q68SA9, WT or E373Q catalytic mutant) with a carboxyl terminal 3xFLAG tag was used to generate custom adenoviruses as previously described. Adeno-CMV-Luciferase (Ad-Luc) from Vector Biolabs was used as a negative control. Human Coronary Artery Smooth Muscle Cells (HCA-SMC) were obtained from Lonza and expanded in Lonza SmGM-2 media in 15 cm tissue culture plates. Twenty-four hours before media collection, near confluent plates were transduced with 50 MOI adenovirus and switched to Lonza Basal SM media with volumes of 20 ml per 15 cm plate. Expression of the Flag tagged ADAMTS7 was confirmed from the media using western blot and detected using the anti-Flag M2-HRP antibody (Sigma, A8592). Collected media was processed by adding protease inhibitors (1 mM EDTA and 1 mM PMSF) and clarified by 500 g×5 min spin at 4 C to pellet cell debris. Cell media supernatants were then passed through a 0.22 um filter and kept chilled. Processed media was then concentrated 50-100× using 3 kDa Centricon Plus-70 filter unit, spun at 3,500 g×60 min at 4 C. Approximately 10% of the processed, concentrated media was set aside for total secretome proteolytic analysis. The remaining 90% of the processed, concentrated media was buffer exchanged into 50 mM HEPES pH 8.0, 150 mM NaCl (2×50 ml) using the 3 kDa Centricon Plus-70 filter unit and concentrated to >2 mg/ml to serve as input for the TAILS experiment. Secretome and TAILS input samples were stored at −80° C.
For the first experiment, referred to as SMC1, 120 ml of media from 6×15 cm dishes was pooled from each condition (Luc, WT, EQ) and processed to produce three separate inputs for the TAILS experiment. Luc, WT and EQ inputs from the SMC1 experiment were each divided into triplicate 400 ug samples to generate technical replicate TAILS data. For the second experiment, referred to as SMC2, media was processed separately in triplicate for each condition (Luc1, Luc2, Luc3, WT1, WT2, WT3, EQ1, EQ2, EQ3) using 60 ml of media from 3×15 cm dishes for each process replicate. Inputs from the SMC2 experiment used process replicates of 300 ug each to generate TAILS data. The third experiment used input from cultured Human umbilical vein endothelial cells (HUVEC) from Lifeline Cell Technology grown in VascuLife Media and transduced in Lifeline Basal EC (+bFGF2 10 ng/ml). The HUVEC experiment used the same strategy as the SMC2 experiment, with 40 ml of media from 2×15 cm dishes for each process replicate and used 200 ug each to generate TAILS data. Inputs for process replicate experiments were restricted to the lowest concentration from the 9 parallel samples for SMC2 or HUVEC.
TMT10 isotopic labeling and negative selection of non-labeled peptides-Sample preparation was performed based on the TAILS protocol from the Overall lab with some modifications. From a single experiment, nine parallel protein samples in 50 mM HEPES pH 8.0, 150 mM NaCl were separately denatured with guanidinium chloride (Sigma, G4505) to reach a final concentration of 2.5M guanidinium chloride and 250 mM HEPES and incubated at 65° C. for 15 min. Reduction was achieved through addition of tris(2-carboxylethyl) phosphine (TCEP) at a final concentration of […] and incubated at 65° C. for 45 min. Alkylation reaction was performed with addition of iodoacetamide (IAA, Sigma, A3221) to a final concentration of 10 mM IAA for 15 min at room temperature in the dark. Following denaturation, reduction and alkylation steps, ten percent of each of the nine parallel protein samples was removed and combined to serve as a pooled reference. Isobaric tags were added to free amine groups using the TMT10plex Isobaric Mass Tagging Kit (ThermoFisher, 90113) with TMT channels randomly assigned to the nine samples and TMT 131 assigned to the pooled reference. […]

[3] = log fold change of N-terminal peptide, Ad-mADAMTS7 WT over EQ

Substance	logFC.mWT.over.mEQ (mouse ADAMTS7 [1])	logFC.mWT.over.mEQ (mouse ADAMTS7 [2]; log fold change, mWT over mEQ)	logFC.mWT.over.mEQ (mouse ADAMTS7 [2]; [3])
FN1_1656 (SSSPVTGYR; listed as Homo sapiens)	1.52	1.86	
GSN_413 (HIANVER; listed as Homo sapiens)	2.19	1.74	
HSPG2_275 (LLPGSVR; listed as Homo sapiens)	2.49	2.10	
HSPG2_2331 (ANLAYPAGSTQPIR; listed as Homo sapiens)	2.04	1.91	
HSPG2_2333 (LAYPAGSTQPIR; listed as Homo sapiens)	1.92	1.41	
IGFBP3_31 (SAGLGPVVR; listed as Homo sapiens)	2.49	2.44	
IGFBP3_32 (AGLGPVVR; listed as Homo sapiens)	3.78	5.18	
IGFBP7_101 (AAGGPGVSGVCVCKSR; listed as Homo sapiens)	3.69	2.57	
LOXL1_219 (VASAGVIYPYQPR; listed as Homo sapiens)	1.09		1.47
LOXL2_37 (FQQPAPEYHQPQAPANVAKIQLR; listed as Homo sapiens)	3.28		3.30
LOXL2_38 ([code q]QPAPEYHQPQAPANVAKIQLR; not fully specified; listed as Homo sapiens)	1.26		1.68
LOX_58 (LSLGSQYQPQR; listed as Homo sapiens)	0.99	1.77	
LOX_123 (HWFQAGYSTSR; listed as Homo sapiens)	1.82	1.37	
LOX_124 (WFQAGYSTSR; listed as Homo sapiens)	3.62	3.45	
LOX_126 (QAGYSTSR; listed as Homo sapiens)	1.59	3.03	
LTBP1_393 (LTATNFR; listed as Homo sapiens)	3.89		6.30
LTBP1_540 (HQQVIPHVYPVAAKTQLGR; listed as Homo sapiens)	2.70		1.77
